#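 Tested at 5 concentrations; 48 h exposure; 96-well plates; endpoints linearly interpolated, else capped at highest concentration. GI50 = concentration required for 50% inhibition of growth. TGI denotes the concentration required for complete inhibition of growth.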
# Columns and labels:
# Experiment in all cases: NCI anticancer screen, dose series, 48 h
# 786-0 renal = test system: 786-0 renal
# A498 renal = test system: A498 renal
# A549 NSCLC = test system: A549 NSCLC
# ACHN renal = test system: ACHN renal
# BT-549 breast = test system: BT-549 breast
# CAKI-1 renal = test system: CAKI-1 renal
# CCRF-CEM leukemia = test system: CCRF-CEM leukemia
# COLO 205 colon = test system: COLO 205 colon
# DU-145 prostate = test system: DU-145 prostate
# EKVX NSCLC = test system: EKVX NSCLC
# HCC-2998 colon = test system: HCC-2998 colon
# HCT-116 colon = test system: HCT-116 colon
# HCT-15 colon = test system: HCT-15 colon
# HL-60(TB) leukemia = test system: HL-60(TB) leukemia
# HOP-62 NSCLC = test system: HOP-62 NSCLC
# HOP-92 NSCLC = test system: HOP-92 NSCLC
# HS 578T breast = test system: HS 578T breast
# HT29 colon = test system: HT29 colon
# IGROV1 ovarian = test system: IGROV1 ovarian
# K-562 leukemia = test system: K-562 leukemia
# KM12 colon = test system: KM12 colon
# LOX IMVI melanoma = test system: LOX IMVI melanoma
# M14 melanoma = test system: M14 melanoma
# MALME-3M melanoma = test system: MALME-3M melanoma
# MCF7 breast = test system: MCF7 breast
# MDA-MB-231 breast = test system: MDA-MB-231 breast
# MDA-MB-435 = test system: MDA-MB-435
# MOLT-4 leukemia = test system: MOLT-4 leukemia
# NCI-H226 lung = test system: NCI-H226 lung
# NCI-H23 lung = test system: NCI-H23 lung
# NCI-H460 lung = test system: NCI-H460 lung
# NCI-H522 lung = test system: NCI-H522 lung
# NCI/ADR-RES ovarian = test system: NCI/ADR-RES ovarian
# OVCAR-3 ovarian = test system: OVCAR-3 ovarian
# OVCAR-4 ovarian = test system: OVCAR-4 ovarian
# OVCAR-5 ovarian = test system: OVCAR-5 ovarian
# OVCAR-8 ovarian = test system: OVCAR-8 ovarian
# PC-3 prostate = test system: PC-3 prostate
# RPMI-8226 leukemia = test system: RPMI-8226 leukemia
# RXF 393 renal = test system: RXF 393 renal
# SF-268 CNS = test system: SF-268 CNS
# SF-295 CNS = test system: SF-295 CNS
# SF-539 CNS = test system: SF-539 CNS
# SK-MEL-2 melanoma = test system: SK-MEL-2 melanoma
# SK-MEL-28 melanoma = test system: SK-MEL-28 melanoma
# SK-MEL-5 melanoma = test system: SK-MEL-5 melanoma
# SK-OV-3 ovarian = test system: SK-OV-3 ovarian
# SN12C renal = test system: SN12C renal
# SNB-19 CNS = test system: SNB-19 CNS
# SNB-75 CNS = test system: SNB-75 CNS
# SR leukemia = test system: SR leukemia
# SW-620 colon = test system: SW-620 colon
# T-47D breast = test system: T-47D breast
# TK-10 renal = test system: TK-10 renal
# U251 CNS = test system: U251 CNS
# UACC-257 melanoma = test system: UACC-257 melanoma
# UACC-62 melanoma = test system: UACC-62 melanoma
# UO-31 renal = test system: UO-31 renal
structure (smiles),measurement,setting,value
CCN(CC)c1ccc(/C=N/NC(=O)c2ccc(NS(C)(=O)=O)cc2)cc1,GI50,786-0 renal,714 nM
same,TGI,786-0 renal,6480 nM
same,GI50,A498 renal,6090 nM
same,TGI,A498 renal,41300 nM
same,GI50,A549 NSCLC,2430 nM
same,TGI,A549 NSCLC,> 100000 nM
same,GI50,ACHN renal,656 nM
same,TGI,ACHN renal,57100 nM
same,GI50,BT-549 breast,847 nM
same,TGI,BT-549 breast,11200 nM
same,GI50,CAKI-1 renal,554 nM
same,TGI,CAKI-1 renal,> 47000 nM
same,GI50,CCRF-CEM leukemia,301 nM
same,TGI,CCRF-CEM leukemia,> 100000 nM
same,GI50,COLO 205 colon,643 nM
same,TGI,COLO 205 colon,25900 nM
same,GI50,DU-145 prostate,933 nM
same,TGI,DU-145 prostate,> 100000 nM
same,GI50,EKVX NSCLC,1010 nM
same,TGI,EKVX NSCLC,> 77000 nM
same,GI50,HCC-2998 colon,704 nM
same,TGI,HCC-2998 colon,> 76800 nM
same,GI50,HCT-116 colon,352 nM
same,TGI,HCT-116 colon,> 87700 nM
same,GI50,HCT-15 colon,431 nM
same,TGI,HCT-15 colon,49100 nM
same,GI50,HL-60(TB) leukemia,294 nM
same,GI50,HOP-62 NSCLC,415 nM
same,TGI,HOP-62 NSCLC,17800 nM
same,GI50,HOP-92 NSCLC,457 nM
same,TGI,HOP-92 NSCLC,40300 nM
same,GI50,HS 578T breast,2740 nM
same,TGI,HS 578T breast,58900 nM
same,GI50,HT29 colon,556 nM
same,TGI,HT29 colon,18700 nM
same,GI50,IGROV1 ovarian,716 nM
same,TGI,IGROV1 ovarian,> 100000 nM
same,GI50,K-562 leukemia,595 nM
same,TGI,K-562 leukemia,> 100000 nM
same,GI50,KM12 colon,907 nM
same,TGI,KM12 colon,> 66800 nM
same,GI50,LOX IMVI melanoma,301 nM
same,TGI,LOX IMVI melanoma,10900 nM
same,GI50,M14 melanoma,463 nM
same,TGI,M14 melanoma,3420 nM
same,GI50,MALME-3M melanoma,1170 nM
same,TGI,MALME-3M melanoma,15300 nM
same,GI50,MCF7 breast,598 nM
same,TGI,MCF7 breast,> 100000 nM
same,GI50,MDA-MB-231 breast,546 nM
same,TGI,MDA-MB-231 breast,> 72100 nM
same,GI50,MDA-MB-435,1560 nM
same,TGI,MDA-MB-435,> 100000 nM
same,GI50,MOLT-4 leukemia,433 nM
same,TGI,MOLT-4 leukemia,> 41300 nM
same,GI50,NCI-H226 lung,1210 nM
same,TGI,NCI-H226 lung,38000 nM
same,GI50,NCI-H23 lung,1890 nM
same,TGI,NCI-H23 lung,> 100000 nM
same,GI50,NCI-H460 lung,564 nM
same,TGI,NCI-H460 lung,11800 nM
same,GI50,NCI-H522 lung,418 nM
same,TGI,NCI-H522 lung,15100 nM
same,GI50,NCI/ADR-RES ovarian,3860 nM
same,TGI,NCI/ADR-RES ovarian,> 100000 nM
same,GI50,OVCAR-3 ovarian,231 nM
same,TGI,OVCAR-3 ovarian,20100 nM
same,GI50,OVCAR-4 ovarian,409 nM
same,TGI,OVCAR-4 ovarian,> 100000 nM
same,GI50,OVCAR-5 ovarian,2320 nM
same,TGI,OVCAR-5 ovarian,> 100000 nM
same,GI50,OVCAR-8 ovarian,445 nM
same,TGI,OVCAR-8 ovarian,> 100000 nM
same,GI50,PC-3 prostate,561 nM
same,TGI,PC-3 prostate,> 100000 nM
same,GI50,RPMI-8226 leukemia,4280 nM
same,TGI,RPMI-8226 leukemia,> 60700 nM
same,GI50,RXF 393 renal,1180 nM
same,TGI,RXF 393 renal,4780 nM
same,GI50,SF-268 CNS,383 nM
same,TGI,SF-268 CNS,> 49000 nM
same,GI50,SF-295 CNS,828 nM
same,TGI,SF-295 CNS,20700 nM
same,GI50,SF-539 CNS,571 nM
same,TGI,SF-539 CNS,11300 nM
same,GI50,SK-MEL-2 melanoma,4330 nM
same,TGI,SK-MEL-2 melanoma,24600 nM
same,GI50,SK-MEL-28 melanoma,498 nM
same,TGI,SK-MEL-28 melanoma,> 78200 nM
same,GI50,SK-MEL-5 melanoma,1670 nM
same,TGI,SK-MEL-5 melanoma,> 46500 nM
same,GI50,SK-OV-3 ovarian,1050 nM
same,TGI,SK-OV-3 ovarian,27700 nM
same,GI50,SN12C renal,978 nM
same,TGI,SN12C renal,> 100000 nM
same,GI50,SNB-19 CNS,1600 nM
same,TGI,SNB-19 CNS,> 79600 nM
same,GI50,SNB-75 CNS,434 nM
same,TGI,SNB-75 CNS,16900 nM
same,GI50,SR leukemia,170 nM
same,TGI,SR leukemia,> 100000 nM
same,GI50,SW-620 colon,693 nM
same,TGI,SW-620 colon,> 100000 nM
same,GI50,T-47D breast,1220 nM
same,TGI,T-47D breast,> 72100 nM
same,GI50,TK-10 renal,1740 nM
same,TGI,TK-10 renal,> 92600 nM
same,GI50,U251 CNS,236 nM
same,TGI,U251 CNS,> 44500 nM
same,GI50,UACC-257 melanoma,1100 nM
same,TGI,UACC-257 melanoma,21200 nM
same,GI50,UACC-62 melanoma,526 nM
same,TGI,UACC-62 melanoma,10200 nM
same,GI50,UO-31 renal,580 nM
same,TGI,UO-31 renal,24400 nM
